US10750743B2, “Pyridazinone herbicides” (E.I. DU PONT DE NEMOURS AND COMPANY, priority 2015, dated 2020)

What was measured:
[1] = test system: sedge, umbrella (small-flower umbrella sedge, Cyperus difformis); assay: Test B flooded paddy test, visual rating; format: in vivo; conditions: Cyperus difformis, 360 h; Flood, 250 g ai/ha, applied to paddy water, rated after 13 to 15 d; read-out: Sedge, Umbrella plant response rating (0 to 100 scale, 0 is no effect, 100 is complete control)
Outline: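 Plants at the 2-leaf stage were flooded to 3 cm above soil, and test compounds were applied directly into the paddy water, which was held at that depth throughout. After 13 to 15 d in a greenhouse, injury was rated visually against untreated controls on a 0–100 scale (0 no effect, 100 complete control).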

melting point	Structure (SMILES)	pest or weed control at 250 g/ha [1]
194 to 199 °C	Cc1cc2ccc(C)c(-c3c(O)c(C)nn(C)c3=O)c2o1 [Compound 10, 4-(2,6-dimethyl-7-benzofuranyl)-5-hydroxy-2,6-dimethyl-3(2H)-pyridazinone]	0%
93 to 96 °C	CC(=O)Oc1c(C)nn(C)c(=O)c1-c1c(C)ccc2cc(C)oc12 [Compound 11, 5-(acetyloxy)-4-(2,6-dimethyl-7-benzofuranyl)-2,6-dimethyl-3(2H)-pyridazinone]	0%
	Cc1cc2cccc(-c3c(O)c(C)nn(C)c3=O)c2o1 [Compound 12, 5-hydroxy-2,6-dimethyl-4-(2-methyl-7-benzofuranyl)-3(2H)-pyridazinone]	0%
115 to 118 °C	Cc1nn(C)c(=O)c(-c2cccc3snc(C)c23)c1O [Compound 25, 5-hydroxy-2,6-dimethyl-4-(3-methyl-1,2-benzisothiazol-4-yl)-3 (2H)-pyridazinone]	0%
	Cc1ccc2sccc2c1-c1c(O)c(C)nn(C)c1=O [Compound 29, 5-hydroxy-2,6-dimethyl-4-(5-methylbenzo[b]thien-4-yl)-3(2H)-pyridazinone]	0%
103 to 107 °C	CCOC(=O)Oc1c(C)nn(C)c(=O)c1-c1c(C)ccc2sccc12 [Compound 30, 1,6-dihydro-1,3-dimethyl-5-(5-methylbenzo[b]thien-4-yl)-6-oxo-4-pyridazinyl ethyl carbonate]	0%
	Cn1nc(Cl)c(O)c(-c2nccc3ccccc23)c1=O [Compound 67, 6-chloro-5-hydroxy-4-(1-isoquinolinyl)-2-methyl-3(2H)-pyridazinone]	75%
	Cc1nn(C)c(=O)c(-c2ccc(F)c3ccoc23)c1O [Compound 68, 4-(4-fluoro-7-benzofuranyl)-5-hydroxy-2,6-dimethyl-3(2H)-pyridazinone]	0%
	COc1c(C)nn(C)c(=O)c1-c1ccc(F)c2ccoc12 [Compound 69, 4-(4-fluoro-7-benzofuranyl)-5-methoxy-2,6-dimethyl-3(2H)-pyridazinone]	0%
